Data published in US20250295665A1, “SELECTIVE K-RAS INHIBITORS FOR THE ENHANCEMENT OF ADOPTIVE IMMUNOTHERAPIES” (H. LEE MOFFITT CANCER CENTER AND RESEARCH INSTITUTE INC., priority 2022, published 2025).

Experiments:
HCC44-PSCA = HCC44-PSCA SC tumors in NSG mice with IV CAR-T transfer (human T cell ACT mouse model); type: in vivo
Method: Inoculated in NSG mice and received IV CART transfer with AMG-510 Orla gavage (30 mg/Kg/Mouse for 6 days then sacrificed and tumors were collected and stained with T cells markers, or for 20 days with IP anti-human PD1 Ab (twice a week) for Tumor growth curve.

CT26-G12C tumors = experiment: Single cell RNA sequencing of CT26-G12C tumors; type: in vivo, mouse
Description: UMAP projections were generated from scRNA-seq data and used for visualization. Cell type clusters detected in DAPI-sorted cells from CT26-G12C SC. Tumors (FIG. 4A), or from CT26-G12C in vitro cell line (FIG. 4D) treated with the indicated conditions are shown, with cell % percentage histogram and gene-level expression heat map calculated for each cluster.

[1] = system: CT26-G12C colon cancer cells; type: in vivo, mouse
Method: CT26-G12C colon cancer cells were SC. Implanted in BALB/C mice, and left to develop SC. Tumors for 20 days, then treated with oral gavage of 3 mg/kg/mouse TRA or 30 mg/kg/mouse AMG-510 for 6 days alone or for 20 days with anti-PD1 Ab (IP 200 μg/mouse twice a week). Tumor size was measured till mice being sacrificed. tumors were collected and stained for T cell, and Myeloid cell markers mouse antibodies (anti-CD45, anti-CD8, anti-CD4, anti-CD3, anti-CD69, anti-PD1, anti-CD25, anti-CD62L, anti-CD44, anti-F4/80, anti-CD11C, anti-CD11b, anti-Ly6G, ant-Ly6C and Live/Dead near IR viability dye). CM (central memory): CD62L+CD44+, EM (Effector memory) CD62L-CD44+. Mice survival was assessed using Kaplan-Meier survival test.

## C=CC(=O)N1CCN(c2nc(=O)n(-c3c(C)ccnc3C(C)C)c3nc(-c4c(O)cccc4F)c(F)cc23)[C@@H](C)C1 (atropisomer, axis not shown) [Sotorasib, 6-fluoro-7-(2-fluoro-6-hydroxyphenyl)-(1/W)-1-[4-methyl-2-(propan-2-yl)pyridin-3-yl]-4-[(2S)-2-methyl-4-(prop-2-enoyl)piperazin-1-yl]pyrido[2,3-cf]pyrimidin-2 (1/-/)-one]
HCC44-PSCA; combined with CAR-T adoptive cell transfer and anti-PD1 treatment
  anti-tumor effect of CAR-T adoptive cell transfer and anti-PD1: enhanced their anti-tumor effect
HCC44-PSCA; human T cell adoptive therapy (ACT) mouse model, 30 mg/Kg/Mouse oral gavage, 6 days
  expansion of tumor infiltrating lymphocytes (TILs): significantly promoted the expansion of tumor infiltrating lymphocytes
CT26-G12C tumors; CT26-G12C SC tumors and in vitro cell line
  immuno-active and growth-active tumor clusters (scRNA-seq, cell % per cluster): enriches the immuno-active and diminishes growth-active tumor clusters
CT26-G12C tumors; Sotorasib-treated CT26-G12C tumors
  tumor clusters by top upregulated pathways (scRNA-seq): enrichment of tumor clusters with TNFα and IFNγ as top upregulated pathways
[1]; CT26-G12C heterotrophic mouse model, 30 mg/kg/mouse oral gavage, 6 days
  expansion of tumor infiltrating lymphocytes (TILs): significantly promoted the expansion of tumor infiltrating lymphocytes
[1]; combined with anti-PD-1, CT26-G12C model
  mouse survival (Kaplan-Meier): prolonging mouse survival
[1]; mouse tumor models
  tumor microenvironment / T cell effector phenotype: strikingly augmented T cell effector phenotype
[1]; mouse, in vivo, ip
  control of CT26-G12C tumor growth: synergized with anti-PD-1 in controlling CT26-G12C tumor growth
